Assay results taken from publication PMC11477289, “Low-Basicity 5-HT6 Receptor Ligands from the Group of Cyclic Arylguanidine Derivatives and Their Antiproliferative Activity Evaluation” (International Journal of Molecular Sciences, 2024).

Columns and labels:
[1] = tested on: MCF7 breast carcinoma cell line; assay: Antiproliferative activity (MTS), MCF7; settings: Homo sapiens, MCF7, 72 h, read-out: IC50 Values MCF7
U-251 glioblastoma cells = assay: Antiproliferative activity (MTS), U-251; settings: Homo sapiens, U-251, 72 h, read-out: IC50 Values U-251
[2] = tested on: LN-229 glioblastoma cell line; assay: Antiproliferative activity (MTS), LN-229; settings: Homo sapiens, LN-229, 72 h, read-out: IC50 Values LN-229
[3] = tested on: normal human astrocytes (NHAs); assay: Activity on normal astrocytes (MTS), NHA; settings: for IC50: Homo sapiens, Astrocyte, 72 h, read-out: IC50 Values NHA
[4] = tested on: 1321N1 astrocytoma cell line; assay: Antiproliferative activity (MTS), 1321N1; settings: Homo sapiens, 1321-N1, 72 h, read-out: IC50 Values 1321N1
5-HT7b receptor = 5-HT7b receptor (Homo sapiens, UniProt P34969); assay: [3H]-5-CT radioligand binding assay, 5-HT7
Chain of 5-HT7b receptor (P34969 1-432 limits assumed): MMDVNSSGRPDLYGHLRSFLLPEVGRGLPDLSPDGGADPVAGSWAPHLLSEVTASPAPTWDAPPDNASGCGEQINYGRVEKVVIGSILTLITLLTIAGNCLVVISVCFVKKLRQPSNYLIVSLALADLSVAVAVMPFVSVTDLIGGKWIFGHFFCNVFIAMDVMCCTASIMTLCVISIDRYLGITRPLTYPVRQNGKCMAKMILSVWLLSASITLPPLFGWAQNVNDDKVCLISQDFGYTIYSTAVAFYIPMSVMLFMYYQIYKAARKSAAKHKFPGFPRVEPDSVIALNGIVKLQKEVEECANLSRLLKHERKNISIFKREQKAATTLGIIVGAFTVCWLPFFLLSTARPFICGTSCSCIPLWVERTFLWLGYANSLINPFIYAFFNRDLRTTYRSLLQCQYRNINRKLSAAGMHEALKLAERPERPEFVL

human 5-HT6 [5] = biological target: T1, human 5-HT6 (Homo sapiens, UniProt P50406); assay: [3H]-LSD radioligand binding assay, 5-HT6R; settings: HEK293 expressing human 5-HT6R, read-out: 5-HT6 Ki
T1 construct: expressed in transfected cells
T1 sequence (P50406 whole entry): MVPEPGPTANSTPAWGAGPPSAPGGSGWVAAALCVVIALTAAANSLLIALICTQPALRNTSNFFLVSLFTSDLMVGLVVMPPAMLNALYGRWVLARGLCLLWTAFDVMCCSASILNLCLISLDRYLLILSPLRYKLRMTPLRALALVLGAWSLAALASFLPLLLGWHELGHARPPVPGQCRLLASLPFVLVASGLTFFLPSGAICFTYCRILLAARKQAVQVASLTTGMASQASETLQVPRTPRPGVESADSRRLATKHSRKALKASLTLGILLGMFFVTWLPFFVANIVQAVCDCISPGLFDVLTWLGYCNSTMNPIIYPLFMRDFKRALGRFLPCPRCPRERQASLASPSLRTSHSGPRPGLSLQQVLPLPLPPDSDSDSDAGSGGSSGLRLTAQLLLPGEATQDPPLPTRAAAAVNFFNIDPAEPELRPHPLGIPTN
Procedure: Next, the ligands’ affinity for the 5-HT6 receptors was evaluated in the [^3H]-LSD radioligand binding assay. Experiments were performed in a stable HEK293 cell line expressing the human 5-HT6R.
The pellets were stored at −80 °C.

[6] = tested on: AsPC-1 pancreas adenocarcinoma cell line; assay: Antiproliferative activity (MTS), AsPC-1; settings: Homo sapiens, ASPC1, 72 h, read-out: IC50 Values AsPC-1
human 5-HT6 [7] = biological target: T1, human 5-HT6; assay: Functional evaluation, cAMP (LANCE Ultra) in HEK293 cells; assay type: cell-based; settings: antagonist mode, cAMP induced by 5-CT 1000 nM
HEK293 = assay: Cytotoxic activity on HEK293; assay type: cell-based; settings: Homo sapiens
Description: Table 6 Extended receptor affinity study, with functional tests and cytotoxic activity of selected compounds on HEK293. | column: HEK293 / IC50 [µM]

5-HT1A receptor = biological target: T2, 5-HT1A receptor (Homo sapiens, UniProt P08908); assay: [3H]-8-OHDPAT radioligand binding assay, 5-HT1A
T2 sequence (P08908 1-422): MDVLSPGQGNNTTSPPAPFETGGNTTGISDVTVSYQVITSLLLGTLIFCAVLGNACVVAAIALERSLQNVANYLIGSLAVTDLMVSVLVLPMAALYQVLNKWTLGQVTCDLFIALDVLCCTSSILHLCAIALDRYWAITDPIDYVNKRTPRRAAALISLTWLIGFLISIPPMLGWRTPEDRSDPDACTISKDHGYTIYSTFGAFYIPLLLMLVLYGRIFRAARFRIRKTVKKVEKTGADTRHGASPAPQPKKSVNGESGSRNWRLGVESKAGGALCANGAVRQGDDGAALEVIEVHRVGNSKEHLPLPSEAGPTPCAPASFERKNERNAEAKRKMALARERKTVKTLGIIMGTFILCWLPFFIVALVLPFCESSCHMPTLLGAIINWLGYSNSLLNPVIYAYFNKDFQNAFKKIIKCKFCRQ

U87MG glioblastoma cells = assay: Antiproliferative activity (MTS), U87MG; settings: Homo sapiens, U-87 MG, 72 h, read-out: IC50 Values U87MG
[8] = Affinity to phospholipids, IAM column (CHI IAM); assay type: physicochemical; settings: IAM.PC.DD2 column, pH 7.4
[9] = biological target: human serum albumin (HSA) (Homo sapiens, UniProt P02768); assay: Binding to HSA, Chiralpak HSA column; settings: Chiralpak HSA column
Chain of human serum albumin (HSA) (P02768 25-609): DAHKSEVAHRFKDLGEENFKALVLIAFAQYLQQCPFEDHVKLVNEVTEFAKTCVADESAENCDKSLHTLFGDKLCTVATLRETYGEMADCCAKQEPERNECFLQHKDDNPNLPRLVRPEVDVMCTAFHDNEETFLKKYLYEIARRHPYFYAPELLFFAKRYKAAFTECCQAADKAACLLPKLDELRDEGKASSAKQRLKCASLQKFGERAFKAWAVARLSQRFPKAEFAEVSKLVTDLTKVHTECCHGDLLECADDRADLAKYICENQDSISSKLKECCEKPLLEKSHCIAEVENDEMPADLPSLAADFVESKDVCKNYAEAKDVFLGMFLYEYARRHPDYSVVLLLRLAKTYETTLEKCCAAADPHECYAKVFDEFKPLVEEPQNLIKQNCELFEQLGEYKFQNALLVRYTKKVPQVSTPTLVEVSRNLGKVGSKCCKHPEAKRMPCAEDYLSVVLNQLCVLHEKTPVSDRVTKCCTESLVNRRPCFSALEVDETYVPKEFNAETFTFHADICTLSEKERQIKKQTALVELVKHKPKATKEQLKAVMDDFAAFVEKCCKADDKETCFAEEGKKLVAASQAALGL
Description: We began with an assay for lipophilicity, affinity for phospholipids (for 40 compounds), and drug binding to human serum albumin (HSA) (for 20 compounds), using chromatographic protocols developed by Valko [46] and implemented in our laboratory. Compounds with the highest affinity for 5-HT6R and those showing the most promising ADMET parameters, including the possibility of BBB penetration, DDI, and lipophilicity, determined in silico in SwissADME [45], were selected for testing. These methods allowed the determination of chromatographic hydrophobicity indices (CHIs), binding to HSA (%HSA), and phospholipids (CHIIAM) using a single-gradient elution experiment and comparison to reference substances.
The use of columns modified with plasma proteins, such as HSA, also allows for the estimation of binding to HSA, which is the most dominant plasma protein (PP). Binding to PP affects drug pharmacokinetics, such as distribution, half-life, and clearance.
The mobile phase flow rate was 1.5 mL/min, and the column was maintained at 30 °C. • Chiralpak® HSA (50 mm × 4 mm; 5 µm with safety guard column; Daicel Chiral Technologies, West Chester, PA, USA), mobile phase A: 50 mM ammonium acetate, mobile phase B: HPLC-grade isopropanol (VWR International, Leuven, Belgium). For the first 15 min, the linear gradient from 0 to 20% isopropanol was applied and then held at 20% isopropanol for 12 min. In the last 5 min of the sequence, the mobile phase mixture received a pure ammonium acetate solution. The column temperature was held at 30 °C, whereas the flow rate was 0.9 mL/min.
The reference substances for the calibration of HSA, C18, and IAM columns were purchased, respectively: acetanilide, butyrophenone, diclofenac, and octanonophenone (Alfa Aesar, Haverhill, MA, USA); acetophenone, benzimidazole, colchicine, indole, indometacin, paracetamol, and theophylline (Sigma-Aldrich, Steinheim, Germany); nicardipine and nizatidine (Cayman Chemical, Ann Arbor, MI, USA); carbamazepine, heptanophenone, hexanophenone, propiophenone, and valerophenone (Acros Organic, Pittsburg, PA, USA). Before chromatographic experiments, solutes were dissolved in dimethyl sulfoxide (Avantor Performance Materials Poland S.A., Gliwice, Poland) to obtain a 200 µg/mL concentration. The detection was performed in the UV region at the wavelength from 190 nm to 300 nm. The injected volume was 5 μL, and each compound was analyzed in triplicate.

D2L receptor = D2L receptor (Homo sapiens, UniProt P14416); assay: [3H]-raclopride radioligand binding assay, D2
Chain of D2L receptor (P14416 whole entry): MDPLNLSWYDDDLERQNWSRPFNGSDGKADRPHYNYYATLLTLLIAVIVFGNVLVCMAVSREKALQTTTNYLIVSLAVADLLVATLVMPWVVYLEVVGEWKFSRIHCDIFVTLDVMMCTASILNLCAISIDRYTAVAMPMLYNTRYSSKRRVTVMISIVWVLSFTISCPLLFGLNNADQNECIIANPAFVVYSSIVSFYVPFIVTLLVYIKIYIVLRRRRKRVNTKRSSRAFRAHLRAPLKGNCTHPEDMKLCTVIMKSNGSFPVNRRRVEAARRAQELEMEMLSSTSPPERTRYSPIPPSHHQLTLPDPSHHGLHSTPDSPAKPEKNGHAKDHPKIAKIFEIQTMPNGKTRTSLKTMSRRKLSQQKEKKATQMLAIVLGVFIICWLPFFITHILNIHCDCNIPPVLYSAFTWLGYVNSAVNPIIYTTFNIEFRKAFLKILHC

[10] = Chromatographic hydrophobicity index on C18 column (lipophilicity); assay type: physicochemical

IC50 [1] [µM] | IC50 (U-251 glioblastoma cells) [µM] | IC50 [2] [µM] | IC50 [4] [µM] | Ki (5-HT7b receptor) [µM] | Ki (human 5-HT6 [5]) [µM] | IC50 [6] [µM] | Kb (human 5-HT6 [7]) [µM] | Ki (5-HT1A receptor) [µM] | melting point [°C] | IC50 (U87MG glioblastoma cells) [µM] | SMILES | IC50 [3] [µM] | also measured
25.9 | 27 | 9.8 |  |  |  |  |  |  |  |  | CN(C)C/C=C/C(=O)Nc1cc2c(Nc3ccc(F)c(Cl)c3)ncnc2cc1O[C@H]1CCOC1 [Afatinib, reference compound] | 7.5 | 
> 25 | > 25 | > 25 | > 25 | 142 | 0.077 ± 0.018 | > 25 | 0.081 | 207 | 250 to 256 | > 25 | O=S(=O)(NC1=Nc2c(Cl)cccc2CN1)c1cccc2ccccc12 [PR 49, N -(8-chloro-3,4-dihydroquinazolin-2-yl)naphthalene-1-sulfonamide] |  | IC50 (HEK293): 38.8 µM
9.7 ± 1.7 | 7.7 ± 0.8 | > 25 | > 25 |  | 0.851 ± 0.192 | > 25 |  |  | 216 to 222 | > 25 | CN(C)c1ccc2c(c1)CNC(NS(=O)(=O)c1cccc3ccccc13)=N2 [PR 64, N -[6-(dimethylamino)-3,4-dihydroquinazolin-2-yl]naphthalene-1-sulfonamide] | 15.1 ± 2.1 | selectivity index ([3]; activity on NHA compared to U-251 cells): 1.96
> 25 | > 25 | > 25 | > 25 | 37.5 | 0.061 ± 0.014 | > 25 | 0.035 | 134 | 215 to 219 | > 25 | CC1NC(NS(=O)(=O)c2cccc3ccccc23)=Nc2c(Cl)cccc21 (centres unmarked) [PR 71, N -(8-chloro-4-methyl-3,4-dihydroquinazolin-2-yl)naphthalene-1-sulfonamide] |  | CHI IAM [8]: 44.8; %HSA [9]: 97.5%; logKHSA [9]: 1.4; Ki (D2L receptor): 142 µM; CHI C18 pH 2.6 ([10]; pH 2.6): 102.2; CHI C18 pH 7.4 ([10]; pH 7.4): 100.7; CHI C18 pH 10.5 ([10]; pH 10.5): 103.8
